Test results published in patent US20120225889A1, “USE OF MACROCYCLIC LACTONE DERIVATIVES FOR THE TREATMENT OF INFLAMMATORY DISORDERS” (PIRAMAL LIFE SCIENCES LIMITED, priority 2010, published 2012).

Assays:
IL-6 = experiment: Synovial tissue assay (spontaneous production): IL-6; assay type: cell-based; settings: Homo sapiens, synovial tissue cells from rheumatoid arthritis patients, 16 h, read-out: IC50 of IL-6 inhibition
Excerpt: (§1) The ability of compounds of the present invention to inhibit spontaneous production of cytokines from freshly isolated human synovial tissue cells was designed as in reference, Lancet, 29, 244-247, (1989) the disclosure of which is incorporated by reference for the teaching of the assay.
(§2) Synovial tissue was obtained from rheumatoid arthritis patients undergoing knee replacement surgery. […] Subsequently, the cells were washed 3 times with RPMI 1640 culture medium and resuspended in complete medium (RPMI 1640 culture medium supplemented with 5% FBS and 5% human serum-AB+(Sigma, USA) at a concentration of 1×10^6 cells/mL. The viability of synovial cells was determined by trypan blue dye exclusion and was uniformly ≧98%. For the experiment, 100 μL of cell suspension was added to the wells of a 96-well culture plate (Nunc, USA). Following cell plating, 100 μL of the culture medium and 1 μL of various concentrations of the test compound (test compound was dissolved in DMSO to obtain a stock solution of 20 mM. […] The IC50 values were calculated by a nonlinear regression method using the GraphPad software (Prism 3.03).

TNF-α [1] = experiment: Synovial tissue assay (spontaneous production): TNF-α; assay type: cell-based; settings: Homo sapiens, synovial tissue cells from rheumatoid arthritis patients, 16 h, read-out: IC50 of TNF-α inhibition
Excerpt: as §1, §2

TNF-α [2] = experiment: hPBMC membrane-monocyte contact bioassay: TNF-α; assay type: cell-based, human; settings: activated hPBMC membranes, 24 h
Excerpt: The assay was designed as in reference, Immunology Letters, 117, 114-118, (2008), the disclosure of which is incorporated by reference for the teaching of the assay. Activated T cell contact-mediated monocyte activation, leading to the production of proinflammatory cytokines (e.g., TNF-α, IL-6), contributes to the pathogenesis of chronic inflammatory diseases including rheumatoid arthritis.
6-well plates (Nunc, USA) were coated with Goat anti-Mouse IgG, Fc (Chemicon, USA) at a concentration of 16.5 μL/mL in coating buffer ([…] NaHCO3, 3.56 g Na2CO3, pH 9.5).
The plates were incubated overnight at 4° C. under sterile conditions. […]
Following incubation, hPBMCs in separate wells of the 6-well plate were harvested, pooled together, and centrifuged. […] The pellet of hPBMC membranes was resuspended in lysis buffer (Sigma, USA) and the protein concentration was determined by the method of Bradford (Sigma, USA).
100 μL monocytes per well at 5×10^5 cells/mL were added to the 96-well plate (Nunc, USA) and cultured for 48 h at 37° C. […] Supernatants were collected after 24 h and TNF-α and IL-6 production was measured using OptiEIA ELISA sets, (BD BioSciences, USA). […]

In the case of `C/C=C/C(O)C(C)/C=C/C(=N\O)C(C)C(O)C(C)C1OC(=O)/C(OC)=C/C(C)=C/C(C)C(O)C(CC)C(O)C(C)C/C(C)=C/C=C/C1OC` (stereo not drawn) [Compound of example 7, (3Z,5E,13E,15E)-18-((5Z,6E,10E)-3,9-Dihydroxy-5-(hydroxymino)-4,8-dimethyldodeca-6,10-dien-2-yl)-9-ethyl-8,10-dihydroxy-3,17-dimethoxy-5,7,11,13-tetramethyl oxacyclooctadeca-3,5,13,15-tetraen-2-one], the IC50 (IL-6) is reported as 0.3 µM, the IC50 (TNF-α [1]) is reported as 19 µM and the “inhibition of TNF-α production from monocytes” value (TNF-α [2]) is reported as “did not inhibit”.
